According to ChEMBL document CHEMBL4346677, “Compounds based on 5-(perylen-3-ylethynyl)uracil scaffold: High activity against tick-borne encephalitis virus and non-specific activity against enterovirus A” (Eur J Med Chem, 2019):
≈ marks a conversion by molar mass, not a printed value. Calls of active or inactive are those of the source. No cut-off for these calls is given here.

Columns and labels:
[1] = tested on: Human alphaherpesvirus 1; assay: Antiviral activity against HSV-1 infected in African green monkey Vero cells preincubated with virus for 5 mins; format: functional, organism-based; conditions: Human alphaherpesvirus 1, Vero
[2] = Cytotoxicity against African green monkey Vero cells assessed as reduction in cell viability after 24 hrs by microscopic method; format: cell-based; conditions: chlorocebus sabaeus
[3] = tested on: Tick-borne encephalitis virus; assay: Antiviral activity against TBEV Absettarov infected in PEK cells assessed as plaque reduction preincubated for 1 hr followed by overlaying with 1.26% methylcellulose and measured after 6 days by gentian violet staining-based assay; format: functional, organism-based
[4] = Cytotoxicity against African green monkey Vero cells assessed as reduction in cell viability after 7 days by microscopic method; format: cell-based; conditions: chlorocebus sabaeus
[5] = Cytotoxicity against PEK cells assessed as reduction in cell viability after 24 hrs by microscopic method; format: cell-based, Sus scrofa; conditions: pig
[6] = Cytotoxicity against PEK cells assessed as reduction in cell viability after 7 days by microscopic method; format: cell-based, Sus scrofa; conditions: pig
[7] = Cytotoxicity against human RD cells assessed as reduction in cell viability after 24 hrs by microscopic method; format: cell-based
[8] = Cytotoxicity against human RD cells assessed as reduction in cell viability after 7 days by microscopic method; format: cell-based
[9] = tested on: Enterovirus A71; assay: Antiviral activity against Enterovirus A71 isolate 46973 infected in human RD cells assessed as reduction in virus induced cytopathic effect preincubated with viral suspension for 1 hr followed by cell addition measured after 5 to 7 days; format: functional, organism-based
[10] = Cytotoxicity against PEK cells assessed as formation of syncytium-like patterns of cells at 50 uM after 7 days by microscopic method; format: cell-based, Sus scrofa; conditions: pig, 168 h
[11] = tested on: Vero; assay: Cytotoxicity against African green monkey Vero cells assessed as formation of syncytium-like patterns of cells at 50 uM after 7 days by microscopic method; format: cell-based; conditions: chlorocebus sabaeus, 168 h
[12] = tested on: RD; assay: Cytotoxicity against human RD cells assessed as formation of syncytium-like patterns of cells at 50 uM after 7 days by microscopic method; format: cell-based; conditions: 168 h
[13] = tested on: Poliovirus 1; assay: Antiviral activity against poliovirus type 1 sabin 1; format: functional, organism-based
[14] = tested on: Echovirus; assay: Antiviral activity against Echovirus 30 isolate 48461; format: functional, organism-based
[15] = Solubility of compound in 15% DMSO by spectrophotometric analysis; format: physicochemical

CC(C)(C)C(=O)OC[C@@H]1CC[C@H](n2cc(C#Cc3ccc4c5cccc6cccc(c7cccc3c74)c65)c(=O)[nH]c2=O)O1
EC50 [1]: 0.19 µM

O=C(Cn1cc(C#Cc2ccc3c4cccc5cccc(c6cccc2c63)c54)c(=O)[nH]c1=O)NCCCCCCO
CC50 at 24 h [2]: 38 µM | EC50 [3]: 0.0061 µM | CC50 at 168 h [4]: > 50 µM | CC50 at 24 h [5]: > 50 µM | CC50 at 168 h [6]: > 50 µM | CC50 at 24 h [7]: 19 µM | CC50 at 168 h [8]: 38 µM | EC50 [9]: Not Active | Activity [10]: Toxic | Activity [11]: Toxic | Activity [12]: Toxic | Activity [13]: inactive | Activity [14]: inactive

O=c1[nH]c(=O)n([C@H]2CC[C@@H](CO)O2)cc1C#Cc1ccc2c3cccc4cccc(c5cccc1c52)c43
EC50 [1]: 0.087 µM

CC(C)(C)C(=O)OCn1c(=O)c(C#Cc2ccc3c4cccc5cccc(c6cccc2c63)c54)cn(CC(=O)N(CCO)CCO)c1=O
CC50 at 24 h [2]: 38 µM | EC50 [3]: 0.00044 µM | CC50 at 168 h [4]: > 50 µM | CC50 at 24 h [5]: > 50 µM | CC50 at 168 h [6]: > 50 µM | CC50 at 24 h [7]: 19 µM | CC50 at 168 h [8]: 14 µM | EC50 [9]: Not Active | solubility [15]: 1000 µM (≈ 648 µg/mL) | Activity [10]: Toxic | Activity [11]: Toxic | Activity [12]: Toxic | Activity [13]: inactive | Activity [14]: inactive

CC(C)(C)C(=O)OCn1c(=O)c(C#Cc2ccc3c4cccc5cccc(c6cccc2c63)c54)cn(CC(=O)NCCCCO)c1=O
CC50 at 24 h [2]: > 50 µM | EC50 [3]: 0.00069 µM | CC50 at 168 h [4]: > 50 µM | CC50 at 24 h [5]: > 50 µM | CC50 at 168 h [6]: > 50 µM | CC50 at 24 h [7]: 19 µM | CC50 at 168 h [8]: 38 µM | EC50 [9]: Not Active | solubility [15]: 5.3 µM (≈ 3.34 µg/mL) | Activity [10]: Toxic | Activity [11]: Toxic | Activity [12]: Toxic | Activity [13]: inactive | Activity [14]: inactive

CC(C)(C)C(=O)OCn1c(=O)c(C#Cc2ccc3c4cccc5cccc(c6cccc2c63)c54)cn(CC(=O)NCCCCCCO)c1=O
CC50 at 24 h [2]: 38 µM | EC50 [3]: 0.024 µM | CC50 at 168 h [4]: > 50 µM | CC50 at 24 h [5]: > 50 µM | CC50 at 168 h [6]: > 50 µM | CC50 at 24 h [7]: 19 µM | CC50 at 168 h [8]: 38 µM | EC50 [9]: Not Active | Activity [10]: Toxic | Activity [11]: Toxic | Activity [12]: Toxic | Activity [13]: inactive | Activity [14]: inactive

O=C(Cn1cc(C#Cc2ccc3c4cccc5cccc(c6cccc2c63)c54)c(=O)[nH]c1=O)N(CCO)CCO
CC50 at 24 h [2]: > 50 µM | EC50 [3]: 0.007 µM | CC50 at 168 h [4]: > 50 µM | CC50 at 24 h [5]: > 50 µM | CC50 at 168 h [6]: > 50 µM | CC50 at 24 h [7]: > 104 µM | CC50 at 168 h [8]: > 104 µM | EC50 [9]: Not Active | Activity [10]: Toxic | Activity [11]: Toxic | Activity [12]: Toxic | Activity [13]: inactive | Activity [14]: inactive
